The text below walks through data of patent publication US8614215B2, “Quinoxaline inhibitors of phosphoinositide-3-kinases (PI3Ks)” (Merck Serono SA, priority 2007, dated 2013).

Each structure is given as a SMILES string.

By IC50 is commonly meant the concentration at which inhibition is half-maximal. In general, Tmax refers to the time at which the peak concentration occurs.

Data set [1] has as its system Human recombinant GST-PI3K. The experiment in a line: PI3K induced-lipid phosphorylation, neomycin-SPA scintillation proximity assay. The class given is biochemical. To be noted: Human recombinant GST-PI3K, SPA. A general note: Scintillation proximity formats need no separation of bound from free tracer.
Data set [2] has as its system IgM-induced Akt phosphorylation in B cell. The experiment in a line: IgM-induced Akt phosphorylation in B cell (PBMC, flow cytometry). The class given is cell-based. To be noted: human PBMC, CD19+ IgM+ B cells, read-out: IC50 μM, inhibition of IgM-induced Akt phosphorylation. The protocol:
Human PBMC were prepared from a Buffy coat (Geneve Hospital) after a Ficoll gradient (Ficoll-Paque™ Plus PHARMACIA ref: 17-1440-03).
Cell concentration was adjusted to 10^6 cells per mL in RPMI (GIBCO Ref: 72400-21) without serum. Before stimulation, 90 μl of PBMC suspension was incubated with 10 μl of diluted compound in a 96 well round bottom plate for 20 minutes at 37° C.
For B cell activation, 30 μl of Fab′2 Goat anti IgM (Jackson Immuno-research) at10 μg/mL was added to each well. After 5 minutes, cell activation was stopped with 4% paraformaldehyde (10 minutes at room temperature).
Fixed PBMC were then treated for 20 minutes with 0.15% Triton, washed twice with PBS and permeabilized with 50% methanol for 15 minutes.
PBMC were washed twice in PBS, resuspended in: PBS-4% FCS and incubated with anti P-Akt ( 1/100 dilution) for one h at room temperature.
After one wash, PBMC were further stained for 30 minutes with a mixture of anti-CD19-PE (BD Biosciences), anti-IgM-FITC (BD Biosciences) and goat anti rabbit IgG-Alexa 647 (Molecular probe).
After washing, PBMC (Peripheral Blood Mononuclear Cells) were analysed on a FACSCalibur instrument (BD Biosciences) equipped with a 633 helium-neon laser, or stored at 4° C. for further analysis. 510^3 B cells events were gathered per sample in the CD19 positive region.
For the analysis, a threshold was applied on P-Akt histogram of CD19+ IgM+ lymphocytes cells from the non stimulated samples and the percentage of cells above this threshold was determined for each sample.
Background: In flow cytometry, cells or beads pass a laser one at a time.

The nature of data set [3]: Ex-vivo IgM-induced Akt phosphorylation in mouse after oral administration. Conditions: male, C57Bl/6, blood. The protocol:
Compounds are dissolved in 0.5% Carboxymethylcellulose containing 0.25% Tween 20 in water and administered orally to each mouse (6-8 weeks old C57B1/6 males from janvier) in a volume of 10 mL/kg. Half an hour before blood collection, heparin at 100 U/kg is injected intraperitonealy to each mouse. At appropriate Tm (maximum exposure) mice are sacrificed and blood collected by intra-cardiac puncture in heparinised tubes.
Blood is pre-incubated at 37° C. for 20 minutes, then an equal volume of Fab′2 Goat anti-Mouse IgM (μspecific, Jackson ImmunoResearch) at 60 μg/mL is added to each tube. B cell activation is terminated after 3 minutes using formaldehyde 4% final and red blood cells are lysed with another 30 minutes Triton X-100 0.1% treatment. Further to several washes with PBS, cells are transferred in a 96 well plate, permeabilized with 50% ice cold Methanol and put on ice for 15 minutes.
Cells were washed PBS before being incubated for one hour with a Rabbit anti Phospho-Akt antibody (4058 from Cell Signaling) in PBS-4% FCS. […]
Cells were analysed on a FACSCalibur instrument (BD Biosciences) equipped with a 633 helium-neon laser (red laser) and 5.10^3 B cells are collected. A threshold was applied on P-Akt histogram of B220^+ IgM+ lymphocytes from the non stimulated tube and the percentage of cells above this threshold is determined for each sample.

The test system of data set [4] is IgM-induced Akt phosphorylation in B cell in the presence of whole blood. The experiment in a line: IgM-induced Akt phosphorylation in B cell in the presence of whole blood. It counts as cell-based. To be noted: Homo sapiens, CD19+ IgM+ cells, read-out: IC50 μM, inhibition of IgM-induced Akt phosphorylation in the presence of whole blood. The protocol:
100 μl of blood are pre-incubated in falcon tube (352063) for 20 minutes at 37° C.
For B cell activation 100 μl of Fab′2 Goat anti Human IgM (30 ug/mL final) is added to each tube and cells are maintained at 37° C.
After 5 minutes, cell activation is stopped with 130 μl Formaldehyde 10% (4% final) and cells are left 10 minutes at room temperature.
Fixed cells are then treated 30 minutes with Triton 0.1% final (add 1 mL of 0.15% Triton)
After several washes with PBS (red cells lysed progressively during washes, 3-4 washes are necessary), cells are transferred in 96 well plate and permeabilized with 50% ice cold Methanol (resuspend first the cells with 80 μl PBBS and then with 80 μl 100% ice cold Methanol) and put on ice for 15 minutes. Plate can be stored in −20° C. in methanol and surface staining performed another day).
Cells are washed twice with PBS and once with the staining buffer-PBS-4% FCS.
Cells are incubated with anti P-Akt (1/70 dilution) In staining buffer for one h.
After a wash with staining buffer, cells are stained with a mixture of anti CD19-PE (3 ul/well), anti-IGM-FITC (3 ul/well), Goat anti rabbit IgG-Alexa 647 (1/500), goat IgG (1/200) for 30 minutes.
After a wash, cells are resuspended in staining buffer or PBS, kept in fridge or immediately passed on a FACSCalibur instrument (BD Biosciences) equipped with a 633 helium-neon laser (red laser).
P-akt histogram of CD19+IGM+ cells is represented and a threshold is set with the non stimulated sample. The parameter reported for each sample is the % of positive cells above this cursor. A representative example is set out in FIG. 1.

A further data set deals with Class I PI3-kinases. To be noted: Fruman et al., 1998; read-out: IC50 against each of the various Class I PI3-kinases; cited from earlier work.
For another data set, the target named is CK2 protein kinase (Homo sapiens (Human), UniProt P68400). To be noted: Fruman et al., 1998; cited from earlier work.
Sequence of CK2 protein kinase (P68400 whole entry): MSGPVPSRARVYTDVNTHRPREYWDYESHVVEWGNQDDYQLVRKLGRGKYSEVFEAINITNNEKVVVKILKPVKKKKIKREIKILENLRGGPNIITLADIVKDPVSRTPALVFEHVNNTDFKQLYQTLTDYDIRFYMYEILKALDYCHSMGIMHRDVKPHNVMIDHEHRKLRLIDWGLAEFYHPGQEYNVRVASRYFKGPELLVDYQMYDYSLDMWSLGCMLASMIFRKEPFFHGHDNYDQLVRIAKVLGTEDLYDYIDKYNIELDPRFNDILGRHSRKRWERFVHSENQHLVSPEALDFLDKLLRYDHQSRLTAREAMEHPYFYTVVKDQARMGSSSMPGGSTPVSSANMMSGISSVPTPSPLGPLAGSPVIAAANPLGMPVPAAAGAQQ

For the molecule `COc1ccc(CC2CCN(C(C)=O)CC2)c(Nc2nc3ccccc3nc2NS(=O)(=O)c2cn(C)cn2)c1` [Example 16, N-[3-({2-[(1-acetylpiperidin-4-yl)methyl]-5-methoxyphenyl}amino)quinoxalin-2-yl]-1-methyl-1H-imidazole-4-sulfonamide], the results for the IC50 in data set [1] and in data set [2] were 0.089 µM and 0.076 µM, respectively.

As for `COc1ccc(CN2CCN(C)CC2)c(Nc2nc3ccccc3nc2NS(=O)(=O)c2cccnc2)c1` [Example 81, N-[3-({5-methoxy-2-[(4-methylpiperazin-1-yl)methyl]phenyl}amino)quinoxalin-2-yl]pyridine-3-sulfonamide], the IC50 in data set [1] is 0.049 µM; in data set [2], 0.03 µM; in data set [4], 1.9 µM. For the same molecule, the Tmax in data set [3] was 15 min.

Consider `COc1ccc(CC2CCN(C)CC2)c(Nc2nc3ccccc3nc2NS(=O)(=O)c2cn(C)cn2)c1` [Example 11, N-[3-({5-methoxy-2-[(1-methylpiperidin-4-yl)methyl]phenyl}amino)quinoxalin-2-yl]-1-methyl-1H-imidazole-4-sulfonamide], for which the IC50 is 0.043 µM in data set [1], 0.07 µM in data set [2] and 0.3 µM in data set [4].

Regarding `COC[C@H]1OC(=O)c2coc3c2[C@@]1(C)C1=C(C3=O)[C@@H]2CCC(=O)[C@@]2(C)C[C@H]1OC(C)=O` [Wortmannin], in the data set with Class I PI3-kinases, the half-maximal inhibitory concentration (IC50) is 0.001 to 0.01 µM.

In the case of `COc1ccc(CC2CCN(C(C)=O)CC2)c(Nc2nc3ccccc3nc2NS(=O)(=O)c2cccnc2)c1` [Example 17], the IC50 in data set [1] is 0.051 µM; in data set [2], 0.037 µM.

Turning to `COc1ccc(CC2CCOCC2)c(Nc2nc3ccccc3nc2NS(=O)(=O)c2cccnc2)c1` [Example 9, N-(3-{[5-methoxy-2-(tetrahydro-2H-pyran-4-ylmethyl)phenyl]amino}quinoxalin-2-yl)pyridine-3-sulfonamide], the IC50 in data set [1] stood at 0.027 µM; in data set [2], 0.01 µM.

Consider `COc1ccc(CC2CCOCC2)c(Nc2nc3ccccc3nc2NS(C)(=O)=O)c1` [Example 8, N-(3-{[5-methoxy-2-(tetrahydro-2H-pyran-4-ylmethyl)phenyl]amino}quinoxalin-2-yl)methanesulfonamide], for which the IC50 in data set [1] stood at 0.13 µM; in data set [2], 0.07 µM.

For the molecule `COC(=O)c1ccc(OC)cc1Nc1nc2ccccc2nc1NS(=O)(=O)c1cccnc1` [Example 2], the IC50 in data set [1] was 0.088 µM; in data set [2], 0.04 µM.

Turning to `COc1ccc(CC2CCN(C)CC2)c(Nc2nc3ccccc3nc2NS(C)(=O)=O)c1` [Example 13, N-[3-({5-methoxy-2-[(1-methylpiperidin-4-yl)methyl]phenyl}amino)quinoxalin-2-yl]methanesulfonamide], the IC50 in data set [1] was 0.11 µM; in data set [2] it was 0.07 µM; in data set [4], 1 µM.

For `COc1ccc(CC2CCOCC2)c(Nc2nc3ccccc3nc2NS(=O)(=O)c2cn(C)cn2)c1` [Example 7, N-(3-{[5-methoxy-2-(tetrahydro-2H-pyran-4-ylmethyl)phenyl]amino}quinoxalin-2-yl)-1-methyl-1H-imidazole-4-sulfonamide], the IC50 in data set [1] turned out to be 0.049 µM; in data set [2], 0.02 µM.

In the case of `COc1ccc(CC2CCOCC2)c(Nc2nc3ccccc3nc2NS(=O)(=O)c2ccc(CN(C)C)cc2)c1` [Example 86, 4-[(dimethylamino)methyl]-N-(3-{[methoxy-2-(tetrahydro-2H-pyran-4-ylmethyl)phenyl]amino}quinoxalin-2-yl)benzenesulfonamide], the IC50 in data set [2] came to 0.013 µM.

`COC(=O)c1ccc(OC)cc1Nc1nc2ccccc2nc1NS(=O)(=O)c1cn(C)cn1` [Example 1, methyl 4-methoxy-2-[(3-{[(1-methyl-1H-imidazol-4-yl)sulfonyl]amino}quinoxalin-2-yl)amino]benzoate]: the 50% inhibitory concentration (IC50) stood at 0.021 µM in data set [1] and 0.07 µM in data set [2].

As to `O=c1cc(N2CCOCC2)oc2c(-c3ccccc3)cccc12` [LY294002], on CK2 protein kinase, the IC50 is 5000 to 10000 µM.

Regarding `COc1ccc(CC2CCC(O)CC2)c(Nc2nc3ccccc3nc2NS(=O)(=O)c2cccnc2)c1` (stereo not shown) [Example 23, N-[3-({2-[(4-hydroxycyclohexyl)methyl]-5-methoxyphenyl}amino)quinoxalin-2-yl]pyridine-3-sulfonamide], the IC50 in data set [1] turned out to be 0.02 µM; in data set [2] it was 0.017 µM.

`COc1ccc(CCO)c(Nc2nc3ccccc3nc2NS(=O)(=O)c2ccc(NC(=O)CO)cc2)c1` [Example 69, 2-Hydroxy-N-(4-{[(3-{[2-(2-hydroxyethyl)-5-methoxyphenyl]amino}quinoxalin-2-yl)amino]sulfonyl}phenyl)acetamide]: the IC50 in data set [1] stood at 0.065 µM.

Consider `COc1ccc(CC2CCOCC2)c(Nc2nc3ccccc3nc2NS(=O)(=O)c2ccc(F)cc2)c1` [Example 10, 4-fluoro-N-(3-{[5-methoxy-2-(tetrahydro-2H-pyran-4-ylmethyl)phenyl]amino}quinoxalin-2-yl)benzenesulfonamide], for which, in data set [1], the IC50 was 0.15 µM.
